Molecules are shown by their SMILES. Like-named read-outs stand apart in the source and are kept apart here.

For assay [1], the system named is RS4;11 (BCL-2 dependent acute lymphoblastic leukemia cell line). The assay can be described thus: RS4;11 Cell Proliferation Assay. In kind it is cell-based. As to conditions: Homo sapiens, RS4-11, RS4;11 cells, read-out: Cellular proliferation assay (IC50, nM) RS4. The method in brief:
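Viability measured via CellTiter-Glo luminescence after a 48 h, 37 °C exposure to compounds (10 points, highest 1 μM). Seeding was 50,000 RS4;11 cells per well in 10% FBS RPMI-1640; IC50 given as mean.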

Assay [2] has as its target Recombinant human Bcl-2 protein (Homo sapiens (Human), UniProt P10415). The assay can be described thus: Bcl-2 TR-FRET Assay. In kind it is binding. The method in brief: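 In pH 7.5 phosphate buffer containing NaCl, EDTA, Tween-20 and BSA, 0.05 nM Bcl-2 saw serially diluted compound for 0.5 h before 0.5 nM FITC-Bak peptide was added. Signal ratio at 520/490 nm after 1 h yielded IC50.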

The test system of assay [3] is BCL-2 G101V knock-in cell line H96 (derive from RS4;11). The assay can be described thus: Bcl 2-G101V Knock-In RS4;11 Cell Proliferation Assay. Type of assay: cell-based. To be noted: Homo sapiens, RS4;11 Bcl-2 G101V knock-in clone H96, 48 hrs, CellTiter-GLO, read-out: Cellular proliferation assay (IC50, nM) RS4. The method in brief: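 CellTiter-Glo luminescence after 48 h, 37 °C compound treatment (10 concentrations, maximum 1 μM or 10 μM) gave mean IC50 values. Cells were 50,000 per well of H96, a BCL2-G101V knock-in single clone derived from RS4;11 by Cas9 editing.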

Assay [4] concerns the target recombinant human Bcl-2 D103Y protein (Homo sapiens (Human), UniProt P10415, D103Y). The assay can be described thus: Bcl-2-D103Y Biochemical Assay (TR-FRET). In kind it is binding. To be noted: for IC50: TR-FRET, FITC labeled Bak peptide; for Ratio of Bcl-2 D103Y/Bcl-2 WT: ratio of IC50. The method in brief: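 Compounds titrated against the Bcl-2 D103Y–ligand interaction; inhibition derived from the TR-FRET emission ratio 490 nm/520 nm after 337 nm excitation. Four-parameter logistic fitting gave IC50.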

The target in assay [5] is recombinant human Bcl-2-G101V protein (Homo sapiens (Human), UniProt P10415, G101V). Description: Bcl-2-G101V TR-FRET Assay. In kind it is binding. As to conditions: Bcl-2 G101V mutant, TR-FRET; read-out: Biochemical assay (IC50, nM) Bcl-2 G101V. The method in brief: (§1)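 Ex337/em490 & 520 nm TR-FRET; % inhibition of Bcl-2-G101V–ligand interaction from 490:520 ratio vs. increasing compound conc.; IC50 by 4-parameter logistic fit.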

Assay [6] relates to recombinant human Bcl-2-G101V protein. Description: Bcl-2-G101V TR-FRET Assay. Type of assay: binding. As to conditions: ratio of biochemical IC50 Bcl-2 G101V / Bcl-2 WT. The method in brief:
as §1

Setting [7] is: Bcl-2 wild type, TR-FRET, read-out: Biochemical assay (IC50, nM) Bcl-2 WT.
[8] abbreviates: wild type Bcl-2, unit inferred, read-out: Bcl-2 WT.

As for `COc1cc(CN2CCN(C3CC4(C3)CN(c3ccc(C(=O)NS(=O)(=O)c5ccc(NC[C@H]6CC[C@](C)(O)CC6)c([N+](=O)[O-])c5)c(Oc5cnc6[nH]cc(F)c6c5)c3)C4)[C@H](c3ccccc3C(C)C)C2)cc(C)c1OC` [Example 231, 4-(6-((R)-4-(3,4-dimethoxy-5-methylbenzyl)-2-(2-isopropylphenyl)piperazin-1-yl)-2-azaspiro[3.3]heptan-2-yl)-2-((3-fluoro-1H-pyrrolo[2,3-b]pyridin-5-yl)oxy)-N-((4-((((1r,4r)-4-hydroxy-4-methylcyclohexyl)methyl)amino)-3-nitrophenyl)sulfonyl) benzamide], the IC50 in assay [1] came out at 0.12 nM; in assay [2] (setting [7]), 0.27 nM; in assay [2] (setting [8]), 0.27 nM; in assay [3] it was 0.38 nM; in assay [4] it was 0.45 nM; in assay [5], 0.35 nM. Moreover, the “Ratio of Bcl-2 D103Y/Bcl-2 WT” value in assay [4] came to 1.7. Moreover, the “Ratio of Bcl-2 G101V/WT” value in assay [6] came out at 1.3.
For `COc1ccc(CN2CCN(C3CC4(CCN(c5ccc(C(=O)NS(=O)(=O)c6ccc(OCC7CCC(C)(O)CC7)c([N+](=O)[O-])c6)c(Oc6cnc7[nH]ccc7c6)c5)CC4)C3)[C@H](c3ccccc3C(C)C)C2)cc1` (stereo partly drawn) [Example 236, (R)-2-((1H-pyrrolo[2,3-b]pyridin-5-yl)oxy)-N-((4-((4-hydroxy-4-methylcyclohexyl)methoxy)-3-nitrophenyl)sulfonyl)-4-(2-(2-(2-isopropylphenyl)-4-(4-methoxybenzyl)piperazin-1-yl)-7-azaspiro[3.5]nonan-7-yl)benzamide], the IC50 came to 0.16 nM in assay [1]; 0.16 nM in assay [2] (setting [7]); 0.16 nM in assay [2] (setting [8]); 0.8 nM in assay [3]; 0.22 nM in assay [4]; 0.56 nM in assay [5]. Also, the “Ratio of Bcl-2 D103Y/Bcl-2 WT” value in assay [4] came to 1.3. For the same molecule, the “Ratio of Bcl-2 G101V/WT” value in assay [6] worked out at 3.5.
For `COc1cc(CN2CCN(C3CC4(CCN(c5ccc(C(=O)NS(=O)(=O)c6ccc(NC[C@H]7CC[C@](C)(O)CC7)c([N+](=O)[O-])c6)c(Oc6cnc7[nH]ccc7c6)c5)CC4)C3)[C@H](c3ccccc3C(C)C)C2)cc2c1OCC2` [Example 239, 2-((1H-pyrrolo[2,3-b]pyridin-5-yl)oxy)-N-((4-((((1r,4r)-4-hydroxy-4-methylcyclohexyl)methyl)amino)-3-nitrophenyl)sulfonyl)-4-(2-((R)-2-(2-isopropylphenyl)-4-((7-methoxy-2,3-dihydrobenzofuran-5-yl)methyl)piperazin-1-yl)-7-azaspiro[3.5]nonan-7-yl)benzamide], the IC50 in assay [1] came out at 0.12 nM; in assay [2] (setting [7]) it was 0.076 nM; in assay [2] (setting [8]), 0.076 nM; in assay [3], 0.29 nM; in assay [4], 0.12 nM; in assay [5], 0.2 nM. The “Ratio of Bcl-2 D103Y/Bcl-2 WT” value in assay [4] is reported as 1.5. The “Ratio of Bcl-2 G101V/WT” value in assay [6] was 2.6.
Turning to `COc1ccc(CN2CCN(C3CC4(C3)CN(c3ccc(C(=O)NS(=O)(=O)c5ccc(NC[C@H]6CC[C@](C)(O)CC6)c([N+](=O)[O-])c5)c(Oc5cnc6[nH]cc(F)c6c5)c3)C4)[C@H](c3ccccc3C(C)C)C2)nc1` [Example 241, 2-((3-fluoro-1H-pyrrolo[2,3-b]pyridin-5-yl)oxy)-N-((4-((((1r,4r)-4-hydroxy-4-methylcyclohexyl)methyl)amino)-3-nitrophenyl)sulfonyl)-4-(6-((R)-2-(2-isopropylphenyl)-4-((5-methoxypyridin-2-yl)methyl)piperazin-1-yl)-2-azaspiro[3.3]heptan-2-yl)benzamide], the IC50 in assay [1] came out at 0.15 nM; in assay [2] (setting [7]), 0.035 nM; in assay [2] (setting [8]) it was 0.035 nM; in assay [3] it was 0.32 nM; in assay [4], 0.047 nM; in assay [5], 0.096 nM. Further, the “Ratio of Bcl-2 D103Y/Bcl-2 WT” value in assay [4] was found to be 1.3. Besides, in assay [6], the “Ratio of Bcl-2 G101V/WT” value stood at 2.7.
For `COc1cc(CN2CCN(C3CC4(C3)CN(c3ccc(C(=O)NS(=O)(=O)c5ccc(NC[C@H]6CC[C@](C)(O)CC6)c([N+](=O)[O-])c5)c(Oc5cnc6[nH]ccc6c5)c3)C4)[C@H](c3ccccc3C(C)C)C2)cnc1OC` [Example 242, 2-((1H-pyrrolo[2,3-b]pyridin-5-yl)oxy)-4-(6-((R)-4-((5,6-dimethoxypyridin-3-yl)methyl)-2-(2-isopropylphenyl)piperazin-1-yl)-2-azaspiro[3.3]heptan-2-yl)-N-((4-((((1r,4r)-4-hydroxy-4-methylcyclohexyl)methyl)amino)-3-nitrophenyl)sulfonyl)benzamide], the IC50 in assay [1] is 0.17 nM; in assay [2] (setting [7]) it was 0.03 nM; in assay [2] (setting [8]), 0.03 nM; in assay [3] it was 0.28 nM; in assay [4], 0.033 nM; in assay [5], 0.077 nM. Also, in assay [4], the “Ratio of Bcl-2 D103Y/Bcl-2 WT” value amounted to 1.1. In addition, in assay [6], the “Ratio of Bcl-2 G101V/WT” value came to 2.6.
On to `[2H]C([2H])([2H])Oc1ccc(CN2CCN(C3CC4(C3)CN(c3ccc(C(=O)NS(=O)(=O)c5ccc(NC[C@H]6CC[C@](C)(O)CC6)c([N+](=O)[O-])c5)c(Oc5cnc6[nH]ccc6c5)c3)C4)[C@H](c3ccccc3C(C)C)C2)cc1OC([2H])([2H])[2H]` [Example 243, 2-((1H-pyrrolo[2,3-b]pyridin-5-yl)oxy)-4-(6-((R)-4-(3,4-bis(methoxy-d3)benzyl)-2-(2-isopropylphenyl)piperazin-1-yl)-2-azaspiro[3.3]heptan-2-yl)-N-((4-((((1r,4r)-4-hydroxy-4-methylcyclohexyl)methyl)amino)-3-nitrophenyl)sulfonyl)benzamide], for which the IC50 in assay [1] was found to be 0.12 nM; in assay [2] (setting [7]), 0.04 nM; in assay [2] (setting [8]), 0.041 nM; in assay [3] it was 0.22 nM; in assay [4], 0.041 nM; in assay [5], 0.086 nM. Moreover, in assay [4], the “Ratio of Bcl-2 D103Y/Bcl-2 WT” value was found to be 1. Further, the “Ratio of Bcl-2 G101V/WT” value in assay [6] is on record as 2.1.
For `COc1cc(CN2CCN(C3CC4(CCN(c5ccc(C(=O)NS(=O)(=O)c6ccc(NC[C@H]7CC[C@](C)(O)CC7)c([N+](=O)[O-])c6)c(Oc6cnc7[nH]cc(F)c7c6)c5)CC4)C3)[C@H](c3ccccc3C(C)C)C2)ccc1C1CC1` [Example 258, 4-(2-((R)-4-(4-cyclopropyl-3-methoxybenzyl)-2-(2-isopropylphenyl)piperazin-1-yl)-7-azaspiro[3.5]nonan-7-yl)-2-((3-fluoro-1H-pyrrolo[2,3-b]pyridin-5-yl)oxy)-N-((4-((((1r,4r)-4-hydroxy-4-methylcyclohexyl)methyl)amino)-3-nitrophenyl)sulfonyl) benzamide], the IC50 in assay [1] was 0.11 nM; in assay [2] (setting [7]), 0.85 nM; in assay [2] (setting [8]) it was 0.85 nM; in assay [3], 0.28 nM; in assay [4], 1.5 nM; in assay [5] it was 1.75 nM. Also, the “Ratio of Bcl-2 D103Y/Bcl-2 WT” value in assay [4] stood at 1.8. For the same molecule, the “Ratio of Bcl-2 G101V/WT” value in assay [6] came out at 2.1.
